According to patent US20170065667A1, “METHODS FOR SYNCHRONIZATION OF ESTROUS CYCLES AND OVULATION FOR FIXED TIME ARTIFICIAL INSEMINATION IN CATTLE” (Parnell Technologies Pty Ltd., priority 2014, published 2017):
“And” between values parts separate entries of the source, which are not always exact repeats. Equal values may be shown once. Read-outs that look alike come from different tables or passages of the source.

Columns and labels:
[1] = test system: lactating Holstein cows; test: Experiment 1: CL regression / circulating P4 after one vs. two 2 mL i.m. cloprostenol sodium injections in Double-Ovsynch; type: in vivo, cattle; conditions: for CL regression, % of cows: quartiles 2, 3 and 4 combined; for circulating P4 concentrations at 56 hours after the first injection: day of final gonadorelin acetate injection, serum, in ng/mL
Experimental: An experiment was conducted to determine the effectiveness of the exogenous administration of hormones for synchronizing the estrous cycles of lactating dairy cattle and resulting pregnancy rates subsequent to FTAI. A total of 373 lactating Holstein cows (172 primiparous, 201 multiparous) were synchronized with a Double-Ovsynch program comprising a first or presynchronization Ovsynch phase followed by a second Ovsynch phase. All animals were synchronized using a GnRH composition (about 100 mcg of gonadorelin acetate per mL, GONAbreed®, Parnell Technologies Pty Ltd, Alexandria, Australia) and a PGF2α analog composition (about 250 mcg of cloprostenol sodium per mL, estroPLAN®, Parnell Technologies Pty Ltd, Alexandria, Australia). The first Ovsynch phase began at about 51 to about 57 days in milk where the cows received a first 1 mL intramuscular injection of a gonadorelin acetate composition. At about 58 to about 64 days in milk, the cows received a first 2 mL intramuscular injection of a cloprostenol sodium composition. At about 61 to about 67 days in milk, the cows received a second 1 mL intramuscular injection of a gonadorelin acetate composition concluding the first Ovsynch phase. The animals were then synchronized with a second Ovsynch phase comprising an Ovsynch-56 protocol beginning at about 68 to about 74 days in milk where the cows received a third 1 mL intramuscular injection of gonadorelin acetate composition. At about 75 to about 81 days in milk, the animals received a second 2 mL intramuscular injection of a cloprostenol sodium composition. At about 77 to about 83 days in milk (about 56 hours after the second injection of a cloprostenol sodium composition), the animals received a fourth 1 mL intramuscular injection of a gonadorelin acetate composition. And at about 78 to about 84 days in milk (about 16 hours after the fourth injection of the gonadorelin acetate composition), the animals receive AI, concluding the second Ovsynch phase. […] The experimental protocol is shown in the diagram of FIG. 2. Blood samples of the cows were taken at the time of the second injection of the cloprostenol sodium composition (at about 72 hours before FTAI) and at the time of the fourth injection of the gonadorelin acetate composition (at about 16 hours before FTAI). Blood samples were collected from the coccygeal vessels into vacuum tubes. Following collection, the blood samples were placed on ice and transported to a laboratory. After clotting (about 16 hours), samples were centrifuged at 3,000 rpm for 20 minutes and serum was isolated into vials, frozen and stored at −20 Celsius until assayed for P4 concentrations. Progesterone was determined directly from serum using a solid phase radioimmunoassay kit (Coat-A-Count, Siemens Healthcare Diagnostics, Los Angeles, Calif.) with no extraction. […] Statistical analyses were performed with SAS (SAS Institute, 2006). Variables with a binomial distribution, such as P/AI and percentage of animals with CL regression, were analyzed by logistic regression using the LOGISTIC procedure. One-tailed comparisons were utilized throughout the study for comparison of the effect of an additional cloprostenol sodium injection on CL regression and animals pregnant to the FTAI. Continuous variables were analyzed using ANOVA with logistic regression utilized to compare the relationship between circulating P4 and the binomial traits. Animals with ≦2.0 ng/mL P4 on day of PGF were removed from the analysis (n=29; 13 primiparous, 16 multiparous) due to lack of synchronization to the double Ovsynch protocol. Therefore, all analyses were done with a total of 344 lactating dairy cows (n=159 primiparous; n=185 multiparous). Statistical differences were considered significant for P≦0.05 and as a tendency for P≦0.15.

[2] = test system: lactating dairy cows; test: Combined analysis of Experiments 1 and 2: effect of second cloprostenol sodium injection on P/AI; type: in vivo, cattle; conditions: Experiments 1 and 2 combined
Description: Experiment 1 and Experiment 2 were done with a similar experimental design and therefore results were combined in order to more thoroughly test the effect of a second cloprostenol sodium injection in the Ovsynch protocol on P/AI. There was no effect of the second PGF on P/AI in primiparous cows (P=0.304). However in multiparous cows, the second cloprostenol sodium injection increased (P=0.046) P/AI by about 12%. This effect of a second cloprostenol sodium injection on P/AI was also observed when all cows were included in the analysis (P=0.042). The final combined analysis of both experiments provided the most statistical power to test our main hypothesis (Table 6). Overall, there was increased (P=0.042) P/AI with a 9.6% relative increase in fertility. As in both experiments, the effect was only statistically detectable in multiparous (P=0.046) and not in primiparous (P=0.304) cows. In our study an effect of parity on fertility was only detected in cows treated with Ovsynch (P=0.04) and not in cows treated with Ovsynch with the second PGF treatment (P=0.17). Future studies should directly test whether parity effects with Ovsynch-type protocols are related primarily to differences in CL regression between parities or reflect other fertility differences related to parity.

[3] = test system: lactating dairy cows; conditions: cited from earlier work; for percentage of cows with complete CL regression (<0.4 ng/mL 56 hours after PGF2α): 7 day Ovsynch
[4] = test system: lactating dairy cows; conditions: cited from earlier work
[5] = one injection, overall (all cows), P4 <0.5 ng/mL at 56 h
[6] = two injections, Quartile 1, [P4] 2.0-5.4 at first injection
[7] = two injections, overall (all cows), P4 <0.5 ng/mL at 56 h
[8] = dose from 500 to 750 μg, 7 day protocol

prostaglandin F2α [PGF]
% of cows with complete CL regression [1, 5]: 83%
% of cows that did not completely regress the CL ([1]; single PGF treatment, all cows): 18%
% of cows with inadequate CL regression ([1]; single PGF treatment, greater circulating P4 at time of PGF): 11.9%
% of cows with inadequate CL regression ([1]; single PGF treatment, lower P4 (2.0 to 4.8 ng/mL) at time of PGF): 33.3%
CL regression, % (n/n) [1, 6]: 95.1%
% of cows with complete CL regression [1, 7]: 97%
CL regression, % of cows ([1]; two injections): 97.6%
effect of the second PGF on P/AI ([2]; primiparous cows): no effect
% of cows with CL regression ([3]; cows that ovulated to the first GnRH): 79.4%
% of cows not having complete CL regression ([3]; cows with a d7 and a d14 CL): 8.2%
% of cows not having complete CL regression ([3]; cows with a single d7 CL): 35.6%
% of cows not having complete CL regression ([3]; cows with a single d14 CL): 3.0%
% of cows with CL regression ([3]; cows without ovulation to the first GnRH): 93%
percentage of cows with complete CL regression (<0.4 ng/mL 56 hours after PGF2α) ([3]; one PGF2α treatment (day 7)): 84.6%
% of cows with complete CL regression (<0.4 ng/mL at 56 hours after PGF2α) ([3]; resynchronized at 32 days after TAI with Ovsynch (Resynch-32)): 83.7%
% of cows with complete CL regression (<0.4 ng/mL at 56 hours after PGF2α) ([3]; resynchronized with Double-Ovsynch): 89.1%
% of cows with lack of complete / inadequate CL regression ([3]; single PGF2α treatment, Ovsynch-type protocols, literature): 10 to 25% and 10-25%
percentage of cows with complete CL regression (<0.4 ng/mL 56 hours after PGF2α) ([3]; two PGF2α treatments (day 7 and day 8)): 95.6%
improvement in fertility in first service cows, two vs. one PGF2α ([4]; 7 day Ovsynch, not statistically significant): 5.7%
fertility in first service cows ([4]; one PGF2α treatment, 7 day Ovsynch): 47.0%
fertility in first service cows ([4]; two PGF2α treatments, 7 day Ovsynch): 52.7%

O=C(O)CCC/C=C\CC1C(O)CC(O)C1/C=C/C(O)COc1cccc(Cl)c1 (stereo not shown) [cloprostenol sodium]
percentage of cows with P4 below 0.2 ng/mL at final GnRH ([1]; one injection): 42.0%
percentage of cows with higher P4 (>0.5 ng/mL) at final GnRH ([1]; one injection): 17.0%
percentage of cows with lower P4 (0.1 to 0.19) at final GnRH ([1]; one injection): 34.7%
CL regression, % (n/n) ([1]; one injection, Quartile 1, [P4] 2.0-4.8 at first injection): 66.7% and 66.7 (28/42) %
CL regression, % (n/n) ([1]; one injection, Quartile 2, [P4] 4.9-6.7): 84.4 (38/45) %
CL regression, % (n/n) ([1]; one injection, Quartile 3, [P4] 6.8-8.7): 95.5 (42/44) %
CL regression, % (n/n) ([1]; one injection, Quartile 4, [P4] 8.8-12): 84.4 (38/45) %
% of cows with complete CL regression ([1]; one injection, multiparous, P4 <0.5 ng/mL at 56 h): 84.4% (81/96)
% of cows with complete CL regression [1, 5]: 83.0% (146/176)
% of cows with complete CL regression ([1]; one injection, primiparous, P4 <0.5 ng/mL at 56 h after first injection): 81.2% (65/80)
CL regression, % of cows ([1]; one injection): 88.1%
circulating P4 concentrations at 56 hours after the first injection ([1]; single injection): 0.4 ± 0.04
percentage of cows with P4 below 0.2 ng/mL at final GnRH ([1]; two injections): 60.7%
percentage of cows with higher P4 (>0.5 ng/mL) at final GnRH ([1]; two injections): 2.4%
percentage of cows with lower P4 (0.1 to 0.19) at final GnRH ([1]; two injections): 49.4%
% of cows with complete CL regression ([1]; two injections (second 24 h after first), primiparous, P4 <0.5 ng/mL at 56 h): 97.5% (77/79)
CL regression, % (n/n) [1, 6]: 95.1% and 95.1 (39/41) %
CL regression, % (n/n) ([1]; two injections, Quartile 2, [P4] 5.5-7.0): 95.6 (43/45) %
CL regression, % (n/n) ([1]; two injections, Quartile 3, [P4] 7.1-8.6): 100 (43/43) %
CL regression, % (n/n) ([1]; two injections, Quartile 4, [P4] 8.7-12): 97.4 (38/39) %
circulating P4 concentrations at 56 hours after the first injection ([1]; two injections): 0.2 ± 0.05
% of cows with complete CL regression ([1]; two injections, multiparous, P4 <0.5 ng/mL at 56 h): 96.7% (86/89)
% of cows with complete CL regression [1, 7]: 97.0% (163/168)
CL regression, % of cows ([1]; two injections): 97.6%
increase in P/AI by second cloprostenol sodium injection ([2]; multiparous cows): about 12%
percentage of cows with complete CL regression ([3]; dinoprost 25 mg, cloprostenol 0.5 mg): 79%
effect on CL regression of increasing the dose [3, 8]: increased CL regression in multiparous but not primiparous cows
effect on fertility of increasing the dose [4, 8]: tended to increase fertility
